± gives the standard deviation of the reports.
SMILES | glass transition temperature [°C]
*CCOC(=O)C1C2C=CC(C2)C1C(=O)O* (repeat unit) | 0.00
*C/C=C/C[Si](*)(CCCOc1ccccc1)c1ccccc1 (repeat unit) | -5.00
*CC(O)COc1ccc(C(=O)c2ccc(OCC(O)COc3ccc(C(C)(C)c4ccc(O*)cc4)cc3)cc2)cc1 (repeat unit) | 120.00
*c1ccc([Si](c2ccccc2)(c2ccccc2)c2ccc(-c3nnc(*)o3)cc2)cc1 (repeat unit) | 262.00
*CC(O)CN(*)c1cc(C)c(/N=N/c2ccc([N+](=O)[O-])cc2C)c(C)c1 (repeat unit) | 149.00
*CC(*)c1ccc(OCC)cc1 (repeat unit) | 86.00
*c1ccc(Oc2ccc(C3(c4ccc(Oc5ccc(-c6cccc(*)n6)cc5C(F)(F)F)cc4)c4ccccc4-c4ccccc43)cc2)c(C(F)(F)F)c1 (repeat unit) | 182.50
*CCCN(*)C(C)=O (repeat unit) | 30.00
*/C=C(\C#N)C(=O)OCCCCCCCCCCOC(=O)/C(C#N)=C/c1ccc2c(c1)c1cc(*)ccc1n2CCCCCCCCCCCCCC (repeat unit) | 35.00
*CC#CCOC(=O)CCCCCCC(=O)O* (repeat unit) | -38.00
*CC(*)c1cc(C(F)(F)F)cc(C(F)(F)F)c1 (repeat unit) | 116.00
*CCN(*)C(=O)c1ccccc1 (repeat unit) | 111.00
*CCCCCCCCCCCOC(=O)c1cc(OCCCCCCCCCCOc2ccc(/N=N/c3ccc(OC)cc3)cc2)cc(C(=O)OCCCCCCCCCCCOc2ccc(-c3ccc(O*)cc3)cc2)c1 (repeat unit) | 53.00
*C(=O)c1ccc2c(c1)C(=O)N(c1ccc(-c3c(-c4ccc(-c5ccccc5)cc4)cc(-c4ccc(OCCCCCCOc5ccc(-c6cc(-c7ccc(-c8ccccc8)cc7)c(-c7ccc(N8C(=O)c9ccc(*)cc9C8=O)cc7)c(-c7ccc(-c8ccccc8)cc7)c6)cc5)cc4)cc3-c3ccc(-c4ccccc4)cc3)cc1)C2=O (repeat unit) | 111.50
*CCCCCCCC(=O)OCCCCC1COC(*)O1 (repeat unit) | -44.00
*Nc1ccc(*)cc1C (repeat unit) | -71.40
*OC1C(C)(C)C(OC(*)=O)C1(C)C (repeat unit) | 160.00
*C(=O)c1ccc(N(*)CCCCCCCC)cc1 (repeat unit) | 30.00
*CCN(*)C(=O)c1c(F)c(F)c(F)c(F)c1F (repeat unit) | 136.00
*CC(*)(C)C(=O)OCCCCCCc1ccc(/N=N/c2ccc(OC(F)(F)F)cc2)cc1 (repeat unit) | 194.50
*Oc1ccc(/N=C/c2ccc(Oc3ccc(C(c4ccccc4)(c4ccccc4)c4ccc(Oc5ccc(/C=N/c6ccc(*)cc6)cc5)cc4)cc3)cc2)cc1 (repeat unit) | 211.00
*CC(*)(C)C(=O)OCc1cccc(Cl)c1 (repeat unit) | 18.2
*CCCCNC(=O)C(OC)C(OC)C(=O)N* (repeat unit) | 100.00

SMILES | glass transition temperature [°C]
*CCSCc1ccc(Cc2ccc(CSCCOC(=O)CSCc3ccc(Cc4ccc(CSCC(=O)O*)cc4)cc3)cc2)cc1 (repeat unit) | 14.00
*c1cccc(OP(=O)(Oc2cccc(-n3c(=O)c4cc5c(=O)n(*)c(=O)c5cc4c3=O)c2)c2ccccc2)c1 (repeat unit) | 191.00
*Oc1ccc(Oc2ccc(NC(=O)c3ccc(Oc4ccc(C(C)(C)c5ccc(C(C)(C)c6ccc(Oc7ccc(C(=O)Nc8ccc(*)cc8)cc7)cc6)cc5)cc4)cc3)cc2)cc1 (repeat unit) | 165.00
*C1C(=O)N(c2c(CC)cccc2CC)C(=O)C1* (repeat unit) | 288.00
*CCN(*)C(=O)c1ccc(F)cc1F (repeat unit) | 108.00
*CC(*)(C)C(=O)OCC1(C)COCOC1 (repeat unit) | 142.00
*c1ccc(Oc2ccc(C3(c4ccc(Oc5ccc(-c6nnc(*)c7c(-c8ccc(F)cc8)c(-c8ccc(F)cc8)c(-c8ccc(F)cc8)c(-c8ccc(F)cc8)c67)cc5)cc4)c4ccccc4-c4ccccc43)cc2)cc1 (repeat unit) | 321.00
*c1ncnc(N(CCCCCCN(*)c2ccccc2)c2ccccc2)n1 (repeat unit) | 72.00
*CCCCCCNC(=O)NCc1ccc(CNC(=O)N*)cc1 (repeat unit) | 72.00
*Oc1ccc(C(C)(C)c2ccc(OC(=O)OCCCCCOC(*)=O)cc2)cc1 (repeat unit) | 49.50
*Oc1cccc(Oc2ccc(Oc3cccc(OC(=O)c4ccc(C(*)=O)cc4)c3)cc2)c1 (repeat unit) | 103.00
*Oc1ccc(C2(c3ccc(Oc4ccc(C(=O)c5ccccc5-c5ccccc5C(=O)c5ccc(*)cc5)cc4)cc3)c3ccccc3-c3ccccc32)cc1 (repeat unit) | 229.00
*CCC(C)C(C)CCNC(=O)c1cc(C(=O)N*)cc(C(C)(C)C)c1 (repeat unit) | 173.00
*CCOCCOCCOC(=O)NCCCCCCNC(=O)O* (repeat unit) | -6.50
*CCCCCCCCOc1ccc(/C=C2\CC/C(=C\c3ccc(OCCCCCCCCOP(=O)(O*)OC)c(OC)c3)C2=O)cc1OC (repeat unit) | 73.00
*CCCCCCCCCCCCC(=O)N* (repeat unit) | 41.00
*CCc1ccc(*)o1 (repeat unit) | 25.50
*CCCCCCCCCCOC(=O)CCCCCCCCCCCCCCCCC(=O)O* (repeat unit) | -17.00
*CCN(*)C(=O)c1cc(F)cc(F)c1F (repeat unit) | 110.00
*/C=C(/*)c1ccccc1C[Si](C)(C)C (repeat unit) | 170.00
*CCOCCOC(=O)NCCCCCCNC(=O)O* (repeat unit) | 17.00
*Oc1ccc(Oc2ccc(NC(=C(C#N)C#N)c3ccc(C(Nc4ccc(*)cc4)=C(C#N)C#N)cc3)cc2)cc1 (repeat unit) | 255.00
*CC(*)c1c(C)cc(C)cc1C (repeat unit) | 126.00

Results, then the compound that gave them:

glass transition temperature [°C] | SMILES
76.8 | *COc1ccc(C(C)(C)c2ccc(Oc3ccc(*)n3-c3ccc([N+](=O)[O-])cc3)cc2)cc1 (repeat unit)
202.7 | *c1ccc(Sc2ccc(Sc3ccc(Sc4ccc(N5C(=O)c6ccc(Oc7ccc8c(c7)C(=O)N(*)C8=O)cc6C5=O)cc4)cc3)cc2)cc1 (repeat unit)
202.00 | *c1ccc(Oc2ccc(C(=O)c3cccc(C(=O)c4ccc(Oc5ccc(-c6nc(-c7ccccn7)nnc6*)cc5)cc4)c3)cc2)cc1 (repeat unit)
295.00 | *C(=O)Nc1ccc(NC(=O)c2ccc(NC(=O)c3ccc(-c4nc5cc(*)ccc5[nH]4)cc3)cc2)cc1 (repeat unit)
150.00 | *Oc1ccc(NC(=O)CCCCCCCCCCC(=O)Nc2ccc(*)cc2)cc1 (repeat unit)
365.00 | *c1cccc(-c2nc3cc4nc(*)c(-c5ccccc5)nc4cc3nc2-c2ccccc2)c1 (repeat unit)
83.10 | *Oc1cccc(OC(=O)Oc2ccc(C(C)(C)c3ccc(OC(*)=O)cc3)cc2)c1 (repeat unit)
237.00 | *c1cccc(N2C(=O)c3ccc(Oc4cc5ccccc5cc4Oc4ccc5c(c4)C(=O)N(*)C5=O)cc3C2=O)c1 (repeat unit)
246.00 | *c1ccc(C(C)(C)c2ccc(C(C)(C)c3ccc(N4C(=O)c5ccc(Oc6ccc7cc(Oc8ccc9c(c8)C(=O)N(*)C9=O)ccc7c6)cc5C4=O)cc3)cc2)cc1 (repeat unit)
288.00 | *c1ccc(Sc2ccc(-c3nc4ccc(-c5ccc6nc(*)c(-c7ccccc7)nc6c5)cc4nc3-c3ccccc3)cc2)cc1 (repeat unit)
246.70 ± 3.3 | *c1ccc2c(c1)C(=O)N(c1ccc(Oc3ccc(C(C)(C)c4ccc(Oc5ccc(N6C(=O)c7ccc(C(*)(C(F)(F)F)C(F)(F)F)cc7C6=O)cc5)cc4)cc3)cc1)C2=O (repeat unit)
149.00 | *Oc1ccc(C(=O)c2ccc(C(=O)c3ccc(*)c(C(C)C)c3)cc2)cc1C (repeat unit)
230.00 | *c1ccc(Oc2ccc(N3C(=O)c4ccc(Oc5ccc(C6(c7ccc(Oc8ccc9c(c8)C(=O)N(*)C9=O)cc7)CCCCCCCCCCC6)cc5)cc4C3=O)cc2)cc1 (repeat unit)
228.00 | *c1ccc(/C=C/c2ccc(-n3c(=O)c4cc5c(=O)n(*)c(=O)c5cc4c3=O)cc2S(=O)(=O)[O][Na])c(S(=O)(=O)[O][Na])c1 (repeat unit)
272.50 ± 33 | *C(=O)c1ccc2c(c1)C(=O)N(c1c(CC)cc(Cc3cc(CC)c(N4C(=O)c5ccc(*)cc5C4=O)c(CC)c3)cc1CC)C2=O (repeat unit)
253.00 | *c1ccc(Oc2ccc(NC(=O)c3ccc(Oc4cccc5c4C(=O)N(*)C5=O)cc3)cc2)cc1 (repeat unit)
264.10 | *c1c(C)cc(C(c2cccc(C(F)(F)F)c2)c2cc(C)c(N3C(=O)c4ccc(Oc5ccc6c(c5)C(=O)N(*)C6=O)cc4C3=O)c(C)c2)cc1C (repeat unit)
234.00 | *C(=O)c1ccc2c(c1)C(=O)N(c1ccc(OCC(C)(C)COc3ccc(N4C(=O)c5ccc(*)cc5C4=O)cc3)cc1)C2=O (repeat unit)
339.00 | *C(=O)Nc1cccc(NC(=O)c2ccc3c(c2)C(=O)N(c2cccc(N4C(=O)c5ccc(*)cc5C4=O)c2)C3=O)n1 (repeat unit)
240.00 | *C(=O)c1ccc2c(c1)C(=O)N(c1cccc(Cc3ccc(Cc4cccc(N5C(=O)c6ccc(*)cc6C5=O)c4)cc3)c1)C2=O (repeat unit)
182.00 | *Oc1ccc(C(=O)Nc2cc(NC(=O)c3ccc(*)cc3)cc(C(=O)OCCOC(=O)/C=C/c3ccc(N(C)C)cc3)c2)cc1 (repeat unit)

Reference: the PolyMetriX glass transition set
